Assay: xn = mol fraction of the nth substance listed
Conditions: 100 kPa

**Q.** Which results are given for CC[n+]1ccn(C)c1.N#C[N-]C#N + CCCCO?
**A.** speed of sound (298.15 K, x1 = 0.1015): 1316 m/s; viscosity (298.15 K, x1 = 0.1015): 2.73 mPa·s; speed of sound (298.15 K, x1 = 0.2007): 1385 m/s; viscosity (298.15 K, x1 = 0.2007): 2.85 mPa·s; speed of sound (298.15 K, x1 = 0.4008): 1515 m/s; viscosity (298.15 K, x1 = 0.4008): 3.54 mPa·s; speed of sound (298.15 K, x1 = 0.5021): 1575 m/s; viscosity (298.15 K, x1 = 0.5021): 4.21 mPa·s; speed of sound (298.15 K, x1 = 0.6014): 1629 m/s; viscosity (298.15 K, x1 = 0.6014): 5.1 mPa·s; speed of sound (298.15 K, x1 = 0.7012): 1685 m/s; viscosity (298.15 K, x1 = 0.7012): 6.4 mPa·s; speed of sound (298.15 K, x1 = 0.8016): 1725 m/s; viscosity (298.15 K, x1 = 0.8016): 7.9 mPa·s; speed of sound (298.15 K, x1 = 0.9012): 1763 m/s; viscosity (298.15 K, x1 = 0.9012): 10 mPa·s; speed of sound (298.15 K, x1 = 1): 1787 m/s; viscosity (298.15 K, x1 = 1): 13.1 mPa·s; speed of sound (303.15 K, x1 = 0.1015): 1300 m/s; viscosity (303.15 K, x1 = 0.1015): 2.36 mPa·s; speed of sound (303.15 K, x1 = 0.2007): 1369 m/s; viscosity (303.15 K, x1 = 0.2007): 2.41 mPa·s; speed of sound (303.15 K, x1 = 0.3006): 1435 m/s; viscosity (303.15 K, x1 = 0.3006): 2.63 mPa·s; speed of sound (303.15 K, x1 = 0.4008): 1499 m/s; viscosity (303.15 K, x1 = 0.4008): 2.99 mPa·s; speed of sound (303.15 K, x1 = 0.5021): 1559 m/s; viscosity (303.15 K, x1 = 0.5021): 3.55 mPa·s; speed of sound (303.15 K, x1 = 0.6014): 1613 m/s; viscosity (303.15 K, x1 = 0.6014): 4.26 mPa·s; speed of sound (303.15 K, x1 = 0.7012): 1669 m/s; viscosity (303.15 K, x1 = 0.7012): 5.2 mPa·s; speed of sound (303.15 K, x1 = 0.8016): 1709 m/s; viscosity (303.15 K, x1 = 0.8016): 6.6 mPa·s; speed of sound (303.15 K, x1 = 1): 1775 m/s; viscosity (303.15 K, x1 = 1): 11.8 mPa·s; speed of sound (308.15 K, x1 = 0.1015): 1283 m/s; viscosity (308.15 K, x1 = 0.1015): 2.11 mPa·s; speed of sound (308.15 K, x1 = 0.2007): 1352 m/s; viscosity (308.15 K, x1 = 0.2007): 2.17 mPa·s; speed of sound (308.15 K, x1 = 0.5021): 1542 m/s; viscosity (308.15 K, x1 = 0.5021): 2.86 mPa·s; speed of sound (308.15 K, x1 = 0.6014): 1596 m/s; viscosity (308.15 K, x1 = 0.6014): 3.47 mPa·s; speed of sound (308.15 K, x1 = 0.9012): 1730 m/s; viscosity (308.15 K, x1 = 0.9012): 7.3 mPa·s; speed of sound (308.15 K, x1 = 1): 1763 m/s; viscosity (308.15 K, x1 = 1): 10.9 mPa·s; speed of sound (313.15 K, x1 = 0.1015): 1266 m/s; viscosity (313.15 K, x1 = 0.1015): 1.91 mPa·s; speed of sound (313.15 K, x1 = 0.4008): 1466 m/s; viscosity (313.15 K, x1 = 0.4008): 2.16 mPa·s; speed of sound (313.15 K, x1 = 0.5021): 1525 m/s; viscosity (313.15 K, x1 = 0.5021): 2.38 mPa·s; speed of sound (313.15 K, x1 = 0.6014): 1580 m/s; viscosity (313.15 K, x1 = 0.6014): 2.89 mPa·s; speed of sound (313.15 K, x1 = 0.7012): 1636 m/s; viscosity (313.15 K, x1 = 0.7012): 3.58 mPa·s; speed of sound (313.15 K, x1 = 0.8016): 1676 m/s; viscosity (313.15 K, x1 = 0.8016): 4.42 mPa·s; speed of sound (313.15 K, x1 = 0.9012): 1713 m/s; viscosity (313.15 K, x1 = 0.9012): 6 mPa·s; speed of sound (313.15 K, x1 = 1): 1751 m/s; viscosity (313.15 K, x1 = 1): 9 mPa·s; speed of sound (318.15 K, x1 = 0.1015): 1250 m/s; viscosity (318.15 K, x1 = 0.1015): 1.71 mPa·s; speed of sound (318.15 K, x1 = 0.2007): 1319 m/s; viscosity (318.15 K, x1 = 0.2007): 1.79 mPa·s; speed of sound (318.15 K, x1 = 0.3006): 1385 m/s; viscosity (318.15 K, x1 = 0.3006): 1.86 mPa·s; speed of sound (318.15 K, x1 = 0.4008): 1449 m/s; viscosity (318.15 K, x1 = 0.4008): 1.93 mPa·s; speed of sound (318.15 K, x1 = 0.5021): 1509 m/s; viscosity (318.15 K, x1 = 0.5021): 2.07 mPa·s; speed of sound (318.15 K, x1 = 0.7012): 1619 m/s; viscosity (318.15 K, x1 = 0.7012): 2.91 mPa·s; speed of sound (318.15 K, x1 = 0.8016): 1659 m/s; viscosity (318.15 K, x1 = 0.8016): 3.61 mPa·s; speed of sound (318.15 K, x1 = 0.9012): 1697 m/s; viscosity (318.15 K, x1 = 0.9012): 5 mPa·s; speed of sound (318.15 K, x1 = 1): 1739 m/s; viscosity (318.15 K, x1 = 1): 8.1 mPa·s; speed of sound (323.15 K, x1 = 0.1015): 1233 m/s; viscosity (323.15 K, x1 = 0.1015): 1.52 mPa·s; speed of sound (323.15 K, x1 = 0.3006): 1369 m/s; viscosity (323.15 K, x1 = 0.3006): 1.63 mPa·s; speed of sound (323.15 K, x1 = 0.5021): 1492 m/s; viscosity (323.15 K, x1 = 0.5021): 1.84 mPa·s; speed of sound (323.15 K, x1 = 0.6014): 1547 m/s; viscosity (323.15 K, x1 = 0.6014): 1.99 mPa·s; speed of sound (323.15 K, x1 = 0.7012): 1603 m/s; viscosity (323.15 K, x1 = 0.7012): 2.43 mPa·s; speed of sound (323.15 K, x1 = 0.8016): 1643 m/s; viscosity (323.15 K, x1 = 0.8016): 3.03 mPa·s; speed of sound (323.15 K, x1 = 0.9012): 1680 m/s; viscosity (323.15 K, x1 = 0.9012): 4.01 mPa·s; speed of sound (323.15 K, x1 = 1): 1727 m/s; viscosity (323.15 K, x1 = 1): 7.3 mPa·s

**Q.** For CCCCO + CC[n+]1ccn(C)c1.N#C[N-]C#N, which speed of sound (298.15 K, x2 = 0) is on record?
**A.** The speed of sound was 1241 m/s.

**Q.** What about the viscosity (298.15 K, x2 = 0) of the same molecule?
**A.** The viscosity was 2.69 mPa·s.

**Q.** And the speed of sound (303.15 K, x2 = 0)?
**A.** The speed of sound was 1224 m/s.

**Q.** What about the viscosity (303.15 K, x2 = 0) of the same molecule?
**A.** Its viscosity is 2.41 mPa·s.

**Q.** And the speed of sound (308.15 K, x2 = 0)?
**A.** Its speed of sound is 1207 m/s.

**Q.** And the viscosity (308.15 K, x2 = 0)?
**A.** Its viscosity is 2.17 mPa·s.

**Q.** What about the speed of sound (313.15 K, x2 = 0) of the same molecule?
**A.** The speed of sound was 1191 m/s.

**Q.** What about the viscosity (313.15 K, x2 = 0) of the same molecule?
**A.** The viscosity was 1.91 mPa·s.

**Q.** And the speed of sound (318.15 K, x2 = 0)?
**A.** The speed of sound was 1174 m/s.

**Q.** And the viscosity (318.15 K, x2 = 0)?
**A.** Its viscosity is 1.71 mPa·s.

**Q.** And the speed of sound (323.15 K, x2 = 0)?
**A.** Its speed of sound is 1158 m/s.

**Q.** And the viscosity (323.15 K, x2 = 0)?
**A.** Its viscosity is 1.57 mPa·s.

From a compilation of properties of binary mixtures (doi:10.1021/acs.jced.3c00239)
